From patent US12491202B2, “Phospholipid ether analogs for imaging and targeted treatment of pediatric solid tumors” (Wisconsin Alumni Research Foundation, priority 2016, dated 2025)

Key:
[1] = tested on: pediatric solid tumor cells; assay: CLR1501 uptake by flow cytometry in pediatric solid tumor cell lines; assay type: cell-based, human; settings: 5 μM, 16-19 hours incubation, 4 hours wash; Rd, Rh-41, TC-71, TC-106, SK-N-AS, NB-1691, SAOS-2, SJ-GBM2 p<0.01; CHLA-20, Rh-30 p≤0.02
From the text: (§1) FIG. 4 is a bar graph illustrating the preferential uptake of CLR1501, a fluorescent derivative of CLR1404, by pediatric solid cancer cells (rhabdomyosarcoma Rd, Rh-41; Ewing's sarcoma TC-71, TC-106; neuroblastoma SK-N-AS, NB1691; osteosarcoma SAOS-2; glioblastoma SJ-GBM2), and for reference, the adult cancer cell lines PC3 and MT-330, compared to normal human fibroblasts (HUFI), by flow cytometry. Mean±standard error (SE) from minimum 3 experiments per cell line, *P≤0.01. MFI, mean fluorescence intensity; RMS, rhabdomyosarcoma; EWS, Ewing's sarcoma; NB, neuroblastoma; OS, osteosarcoma; GB, glioblastoma, PC, prostate adenocarcinoma. Cells were plated at 5×10^5 cells/ml in triplicates in media containing 5 μM CLR1501 (fluorescent CLR1404). Mean fluorescence intensity corrected for auto-fluorescence was averaged from three experiments±standard deviation.
(§2) Each cell line (5×10^5 cells/ml) was incubated for 16-19 hours with 5 μM CLR1501, then washed with 10% FBS medium for 4 hours. Cells were then measured by flow cytometry (FACSCalibur, BD Biosciences) and analyzed using FlowJo 8.2 (Tree Star, Ashland, Oreg.). Mean fluorescence intensity (MFI) per cell was corrected for autofluorescence (FL1 index) and averaged from three experiments±standard deviation.

[2] = tested on: normal human pediatric fibroblast (HUFI) cells; assay: CLR1501 uptake by flow cytometry in normal fibroblasts; assay type: cell-based; settings: 5 μM, 16-19 hours incubation; compared with pediatric tumor cell lines
From the text: as §1, §2

[3] = tested on: xenografted pediatric solid tumor tissue (Rh30, TC-71, CHLA-20, NB-1691); assay: In vivo uptake of 124I-CLR1404 by PET/CT in xenografted mice; set-up: species or system mouse; settings: NSG mice, 8-13 μCi/g via tail vein injection
Description: Specifically, […] with one of four different pediatric tumor cell lines (CHLA-20 (neuroblastoma), NB-1691 (neuroblastoma), TC-71 (Ewing sarcoma), and Rh-30 (rhabdomyosarcoma). For each of the sixteen xenografted mice, 100 μl cell suspension containing 3×10^6 tumor cells (>95% viability, passage 5-25) was inoculated into subcutaneous tissue of the left flank of a 6-8 week-old NSG mouse (NOD.Cg-Prdc^scidII2rg^tm1Wj1/SzJ, Jackson Laboratory, Bar Harbor, Me.). Once xenograft tumors measured a minimum of about 7×7 mm, the mice received ^124I-CLR1404 at 8-13 μCi/g via tail vein injection. After an uptake period, PET/CT imaging was performed on the mice at 5 and 6 time-points. Following image acquisition, the images were reconstructed, co-registered, resampled, rescaled, and corrected for partial volume effects (PVE), and masked.

[4] = tested on: Rh30 rhabdomyosarcoma xenograft; assay: Tumor growth rate, linear mixed effects model, Rh30 xenograft; assay type: in vivo, mouse; settings: 3.5 μCi/g, excipient slope 0.18, P <0.0001
Description: (§3) Rh30, TC-71, TC-106, CHLA-20, NB-1691, and SAOS-2 subcutaneous flank xenografts were induced in mice, as described in Example 2 above. Tumors were measured twice weekly with calipers, and the tumor volume was calculated. When tumors reached a volume of approximately 50 mm^3, mice were randomly assigned to receive either ^131I-CLR1404 in doses of 3.5 μCi/g or an excipient (equimolar ^127I-CLR1404), and measurement of tumor size continued. Survival rates as a function of time were also observed in the xenografted mice.
(§4) A linear mixed effects analysis of predicted growth rate was performed using the tumor size data described above. The results are shown in Table 1 below, and in graphical form in FIG. 10.

[5] = tested on: TC-71 Ewing's sarcoma xenograft; assay: Tumor growth rate, linear mixed effects model, TC-71 xenograft; assay type: in vivo, mouse; settings: 3.5 μCi/g, excipient slope 0.14, P <0.0003
Description: as §3, §4

[6] = tested on: TC-106 Ewing's sarcoma xenograft; assay: Tumor growth rate, linear mixed effects model, TC-106 xenograft; assay type: in vivo, mouse; settings: 3.5 μCi/g, excipient slope 0.26, P <0.0001
Description: as §3, §4

[7] = tested on: CHLA-20 neuroblastoma xenograft; assay: Tumor growth rate, linear mixed effects model, CHLA-20 xenograft; assay type: in vivo, mouse; settings: 3.5 μCi/g, excipient slope 0.13, P 0.0124
Description: as §3, §4

[8] = tested on: NB-1691 neuroblastoma xenograft; assay: Tumor growth rate, linear mixed effects model, NB-1691 xenograft; assay type: in vivo, mouse; settings: 3.5 μCi/g, excipient slope 0.15, P <0.0001
Description: as §3, §4

[9] = tested on: SAOS-2 osteosarcoma xenograft; assay: Tumor growth rate, linear mixed effects model, SAOS-2 xenograft; assay type: in vivo, mouse; settings: 3.5 μCi/g, excipient slope 0.11, P <0.0001
Description: as §3, §4

[10] = tested on: pediatric solid cancer xenografts; assay: Tumor volume, survival and toxicity in pediatric solid cancer xenograft NSG models; assay type: in vivo, mouse; settings: 3.5 μCi/g
Description: as §3

C[N+](C)(C)CCOP(=O)([O-])OCCCCCCCCCCCCCCCCCCc1ccc(C2=C3C=CC=[N+]3[B-](F)(F)n3cccc32)cc1 [CLR1501]
CLR1501 uptake (mean fluorescence intensity) versus normal pediatric fibroblast (HUFI) cells [1]: significantly higher | CLR1501 uptake in normal cells [2]: much less uptake

C[N+](C)(C)CCOP(=O)([O-])OCCCCCCCCCCCCCCCCCCc1ccc([124I])cc1 [^124I-CLR1404]
Uptake into xenografted tumor tissue (PET/CT) [3]: differential uptake

C[N+](C)(C)CCOP(=O)([O-])OCCCCCCCCCCCCCCCCCCc1ccc([131I])cc1 [^131I-CLR1404]
Slope log volume (prediction of the tumor growth rate) [4]: 0.06 | Slope log volume (prediction of the tumor growth rate) [5]: 0.08 | Slope log volume (prediction of the tumor growth rate) [6]: 0.10 | Slope log volume (prediction of the tumor growth rate) [7]: 0.09 | Slope log volume (prediction of the tumor growth rate) [8]: 0.09 | Slope log volume (prediction of the tumor growth rate) [9]: 0.08 | Toxicity ([10]; xenografted mice): low toxicity | Mean tumor volumes versus excipient ([10]; Rh30, TC-71, CHLA-20 and NB-1691 xenografts): decreased mean tumor volumes | Animal survival versus excipient ([10]; four groups, statistically significant in Ewing's sarcoma and rhabdomyosarcoma xenografts): extended animal survival
